# Biological target: CDK2 (human) (UniProt P24941)
# Test: Enzyme Assay
row,Ki [nM],Structure (SMILES)
1,< 1000,Nc1ncc2c(Nc3n[nH]c4ccccc34)nc(-c3ccc4[nH][nH]c(=O)c4c3C(F)(F)F)nc2n1
2,< 1000,O=c1[nH][nH]c2cc(OC(CCNc3ccccn3)Cc3ccccc3)ccc12 (stereo not given)
3,< 1000,CCCCOC(=O)c1cc(Nc2cc(C)[nH]n2)nc(Sc2ccc3c(=O)[nH][nH]c3c2)n1
4,< 1000,COC[C@H]1CCN(C(=O)c2cc(Nc3nc(-c4ccc5[nH][nH]c(=O)c5c4)nc4ccccc34)n[nH]2)C1
5,< 1000,Cc1cc(Nc2nc(CSc3ccc4[nH][nH]c(=O)c4c3)nc3c2CCCC3)n[nH]1

# From the Kinase Knowledgebase extract (Sharma et al. 2016)
